System: large hemispheric infarction (LHI) patients at high risk for cerebral edema
Assay: CHARM trial: intravenous glibenclamide in large hemispheric infarction, 90-day mRS shift analysis
Type: in vivo, human
Details: for common odds ratio (cOR), 90-day mRS: versus placebo; for lesion volume at which cOR crosses the "no effect" point (cOR=1.0): 90-day mRS, mRS 5 and 6 combined
Text: The CHARM trial evaluated the safety and efficacy of intravenous glibenclamide as a treatment for large hemispheric infarction (LHI) patients at high risk for cerebral edema.
Patients meeting the following criteria were included: • A clinical diagnosis of acute ischemic stroke in the middle cerebral artery (MCA) territory. • A large hemispheric infarction defined as; lesion volume of 80 to 300 centimeters cubed (cm^3) on magnetic resonance imaging (MRI) diffusion-weighted imaging (DWI), or computed tomography perfusion (CTP), or an Alberta Stroke Program Early CT Score (ASPECTS) of 1 to 5 with involvement of at least 2 defined cortical regions. • Screening National Institutes of Health Stroke Scale (NIHSS) >=10. • At the time of randomization, and in the Investigator's judgement, it must be feasible for study drug treatment infusion to be initiated no later than 10 hours after time of symptom onset, if known, or the time last known normal. • Participants who wake with stroke may be included if neurological and other exclusion criteria are satisfied. The time of stroke onset is to be taken as the midpoint between sleep onset (or last known to be normal) and time of waking. • For participants who receive thrombectomy, inclusion into the study must be based on post-thrombectomy MRI-DWI.
Patients meeting the following criteria were excluded: • Participant is likely to have supportive care withdrawn on the first day. • Commitment to decompressive craniectomy (DC) prior to enrollment. • Evidence of concurrent infarction in the contralateral hemisphere sufficiently serious so as to affect functional outcome. Pre-Specified Primary Endpoint • Modified Rankin Scale (mRS) score at 90 days analyzed as a shift analysis using a 5-category ordinal scale with 0/1 and 5/6 collapsed. The primary efficacy analysis was pre-specified to be conducted in participants 18-70 years of age (inclusive) who were randomized and receive study treatment (the modified intent-to-treat [mITT] population].
Five hundred thirty-five subjects were enrolled, with 268 treated with placebo and 267 treated with intravenous glyburide. The mITT population (the primary analysis population), those participants aged […] years who received any study drug, consisted of 431 subjects.
An interaction term between treatment arm and stroke volume was included in an ordinal logistic regression model with 90-day mRS as the dependent variable. Independent variables included age, sex, baseline NIHSS, world region, tissue plasminogen activator, and thrombectomy.

COc1ccc(Cl)cc1C(=O)NCCc1ccc(S(=O)(=O)NC(=O)NC2CCCCC2)cc1 [glibenclamide]
common odds ratio (cOR), 90-day mRS (mITT subjects given glyburide in combination with thrombectomy (n=81), 95% CI 1.10-20.1, p=0.037): 4.69
lesion volume at which cOR crosses the "no effect" point (cOR=1.0) (mITT subjects with CTP or DWI baseline volume): about 140 cm^3
lesion volume at which cOR crosses the "no effect" point (cOR=1.0) (mITT subjects with CTP or DWI baseline volume, listed as glyburide): approximately 140 cm^3
common odds ratio (cOR), 90-day mRS (mITT subjects with CTP or DWI baseline volume, lesion volume less than 85 cm^3, ordinal logistic regression, mRS 0/1 and 5/6 collapsed): about 6
common odds ratio (cOR), 90-day mRS (mITT, baseline stroke volume ≤120 cm^3 subgroup, 95% CI 1.07-5.01, p=0.034): 2.31

— patent US12611416B2, “Methods of treating ischemic stroke at risk for cerebral or cerebellar edema” (REMEDY PHARMACEUTICALS, INC., priority 2024, dated 2026)
